Data published in patent US10765114B2, “4-amino-6-(pyridyl and 2-substitutedphenyl)-picolinates and 6-amino-2-(pyridyl and 2-substitutedphenyl)-pyrimidine-4-carboxylates and their use as herbicides” (Dow AgroSciences LLC, priority 2013, dated 2020).

These molecules were tested on Key Grass and Sedge Weeds as well as Grass Crops (assay: Post-Emergent Test II (Table 6)). Conditions: post-emergence, 336 h, ZEAMX: maize, corn (Zea mays), 140 g ai/ha, 14 days after application, read-out: Visual Growth Reduction (%) 14 Days After Application ZEAMX.
Format: in vivo
Summary of the method: (§1)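 Visual injury ratings (0 = no injury, 100 = complete kill) taken 14 days after treatment, relative to untreated controls. Compounds, in an acetone/DMSO aqueous carrier with crop oil and surfactant, were applied by track sprayer at 187 L/ha, in a twofold dilution series from the top rate, to plants at the first to second true-leaf stage.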

| Structure (SMILES) | pest or weed control at 140 g/ha |
| --- | --- |
| COC(=O)c1nc(-c2ccc(Br)nc2)c(F)c(N)c1Cl [Compound 22, methyl 4-amino-6′-bromo-5-chloro-3-fluoro-[2,3′-bipyridine]-6-carboxylate] | 95 to 100% |

The molecules below were run on Key Broadleaf Weed and Crop Species (assay: Post-Emergent Test II (Table 5)). Conditions: Abutilon theophrasti, post-emergence, 336 h, ABUTH: velvetleaf (Abutilon theophrasti), application rate 70 (kg ai/ha; footnote: g ai/ha), read-out: Visual Growth Reduction (%) 14 Days After Application ABUTH.
Format: in vivo
Summary of the method: as §1

| Structure (SMILES) | pest or weed control at 70 g/ha |
| --- | --- |
| COC(=O)c1nc(-c2ccc(Br)nc2)c(F)c(N)c1Cl [Compound 22, methyl 4-amino-6′-bromo-5-chloro-3-fluoro-[2,3′-bipyridine]-6-carboxylate] | 95 to 100% |

Same assay, conditions: Abutilon theophrasti, post-emergence, 336 h, ABUTH: velvetleaf (Abutilon theophrasti), application rate 140 (kg ai/ha; footnote: g ai/ha), read-out: Visual Growth Reduction (%) 14 Days After Application ABUTH

| Structure (SMILES) | pest or weed control at 140 g/ha |
| --- | --- |
| COC(=O)c1nc(-c2ccc(Br)nc2)c(F)c(N)c1Cl [Compound 22, methyl 4-amino-6′-bromo-5-chloro-3-fluoro-[2,3′-bipyridine]-6-carboxylate] | 95 to 100% |

Same assay, conditions: Amaranthus retroflexus, post-emergence, 336 h, AMARE: redroot pigweed (Amaranthus retroflexus), application rate 70 (kg ai/ha; footnote: g ai/ha), read-out: Visual Growth Reduction (%) 14 Days After Application AMARE

| Structure (SMILES) | pest or weed control at 70 g/ha |
| --- | --- |
| COC(=O)c1nc(-c2ccc(Br)nc2)c(F)c(N)c1Cl [Compound 22, methyl 4-amino-6′-bromo-5-chloro-3-fluoro-[2,3′-bipyridine]-6-carboxylate] | 95 to 100% |

Same assay, conditions: Amaranthus retroflexus, post-emergence, 336 h, AMARE: redroot pigweed (Amaranthus retroflexus), application rate 140 (kg ai/ha; footnote: g ai/ha), read-out: Visual Growth Reduction (%) 14 Days After Application AMARE

| Structure (SMILES) | pest or weed control at 140 g/ha |
| --- | --- |
| COC(=O)c1nc(-c2ccc(Br)nc2)c(F)c(N)c1Cl [Compound 22, methyl 4-amino-6′-bromo-5-chloro-3-fluoro-[2,3′-bipyridine]-6-carboxylate] | 95 to 100% |

Same assay, conditions: Brassica napus, post-emergence, 336 h, BRSSS: oilseed rape, canola (Brassica napus), application rate 70 (kg ai/ha; footnote: g ai/ha), read-out: Visual Growth Reduction (%) 14 Days After Application BRSSS

| Structure (SMILES) | pest or weed control at 70 g/ha |
| --- | --- |
| COC(=O)c1nc(-c2ccc(Br)nc2)c(F)c(N)c1Cl [Compound 22, methyl 4-amino-6′-bromo-5-chloro-3-fluoro-[2,3′-bipyridine]-6-carboxylate] | 95 to 100% |

Same assay, conditions: Brassica napus, post-emergence, 336 h, BRSSS: oilseed rape, canola (Brassica napus), application rate 140 (kg ai/ha; footnote: g ai/ha), read-out: Visual Growth Reduction (%) 14 Days After Application BRSSS

| Structure (SMILES) | pest or weed control at 140 g/ha |
| --- | --- |
| COC(=O)c1nc(-c2ccc(Br)nc2)c(F)c(N)c1Cl [Compound 22, methyl 4-amino-6′-bromo-5-chloro-3-fluoro-[2,3′-bipyridine]-6-carboxylate] | 95 to 100% |

Same assay, conditions: Chenopodium album, post-emergence, 336 h, CHEAL: lambsquarters (Chenopodium album), application rate 70 (kg ai/ha; footnote: g ai/ha), read-out: Visual Growth Reduction (%) 14 Days After Application CHEAL

| Structure (SMILES) | pest or weed control at 70 g/ha |
| --- | --- |
| COC(=O)c1nc(-c2ccc(Br)nc2)c(F)c(N)c1Cl [Compound 22, methyl 4-amino-6′-bromo-5-chloro-3-fluoro-[2,3′-bipyridine]-6-carboxylate] | 95 to 100% |

Same assay, conditions: Chenopodium album, post-emergence, 336 h, CHEAL: lambsquarters (Chenopodium album), application rate 140 (kg ai/ha; footnote: g ai/ha), read-out: Visual Growth Reduction (%) 14 Days After Application CHEAL

| Structure (SMILES) | pest or weed control at 140 g/ha |
| --- | --- |
| COC(=O)c1nc(-c2ccc(Br)nc2)c(F)c(N)c1Cl [Compound 22, methyl 4-amino-6′-bromo-5-chloro-3-fluoro-[2,3′-bipyridine]-6-carboxylate] | 95 to 100% |

Same assay, conditions: Euphorbia heterophylla, post-emergence, 336 h, EPHHL: wild poinsettia (Euphorbia heterophylla), application rate 70 (kg ai/ha; footnote: g ai/ha), read-out: Visual Growth Reduction (%) 14 Days After Application EPHHL

| Structure (SMILES) | pest or weed control at 70 g/ha |
| --- | --- |
| COC(=O)c1nc(-c2ccc(Br)nc2)c(F)c(N)c1Cl [Compound 22, methyl 4-amino-6′-bromo-5-chloro-3-fluoro-[2,3′-bipyridine]-6-carboxylate] | 95 to 100% |

Same assay, conditions: Euphorbia heterophylla, post-emergence, 336 h, EPHHL: wild poinsettia (Euphorbia heterophylla), application rate 140 (kg ai/ha; footnote: g ai/ha), read-out: Visual Growth Reduction (%) 14 Days After Application EPHHL

| Structure (SMILES) | pest or weed control at 140 g/ha |
| --- | --- |
| COC(=O)c1nc(-c2ccc(Br)nc2)c(F)c(N)c1Cl [Compound 22, methyl 4-amino-6′-bromo-5-chloro-3-fluoro-[2,3′-bipyridine]-6-carboxylate] | 95 to 100% |

Same assay, conditions: Helianthus annuus, post-emergence, 336 h, HELAN: sunflower (Helianthus annuus), application rate 70 (kg ai/ha; footnote: g ai/ha), read-out: Visual Growth Reduction (%) 14 Days After Application HELAN

| Structure (SMILES) | pest or weed control at 70 g/ha |
| --- | --- |
| COC(=O)c1nc(-c2ccc(Br)nc2)c(F)c(N)c1Cl [Compound 22, methyl 4-amino-6′-bromo-5-chloro-3-fluoro-[2,3′-bipyridine]-6-carboxylate] | 85 to 94% |

Same assay, conditions: Helianthus annuus, post-emergence, 336 h, HELAN: sunflower (Helianthus annuus), application rate 140 (kg ai/ha; footnote: g ai/ha), read-out: Visual Growth Reduction (%) 14 Days After Application HELAN

| Structure (SMILES) | pest or weed control at 140 g/ha |
| --- | --- |
| COC(=O)c1nc(-c2ccc(Br)nc2)c(F)c(N)c1Cl [Compound 22, methyl 4-amino-6′-bromo-5-chloro-3-fluoro-[2,3′-bipyridine]-6-carboxylate] | 95 to 100% |

Same assay, conditions: Viola tricolor, post-emergence, 336 h, VIOTR: wild pansy (Viola tricolor), application rate 70 (kg ai/ha; footnote: g ai/ha), read-out: Visual Growth Reduction (%) 14 Days After Application VIOTR

| Structure (SMILES) | pest or weed control at 70 g/ha |
| --- | --- |
| COC(=O)c1nc(-c2ccc(Br)nc2)c(F)c(N)c1Cl [Compound 22, methyl 4-amino-6′-bromo-5-chloro-3-fluoro-[2,3′-bipyridine]-6-carboxylate] | 95 to 100% |

Same assay, conditions: Viola tricolor, post-emergence, 336 h, VIOTR: wild pansy (Viola tricolor), application rate 140 (kg ai/ha; footnote: g ai/ha), read-out: Visual Growth Reduction (%) 14 Days After Application VIOTR

| Structure (SMILES) | pest or weed control at 140 g/ha |
| --- | --- |
| COC(=O)c1nc(-c2ccc(Br)nc2)c(F)c(N)c1Cl [Compound 22, methyl 4-amino-6′-bromo-5-chloro-3-fluoro-[2,3′-bipyridine]-6-carboxylate] | 95 to 100% |
